Our source for the IC50 values is ChEMBL document CHEMBL1201862, “PubChem BioAssay data set” (2004).

The source made the active and inactive calls. For most assays here, no stated cut-off is given here; in the data, actives have a measured IC50 and inactives only a lower limit. Where only a bound is given, the exact number is not on record here.

The target of test [1] is T1, Cysteine protease ATG4B (Homo sapiens, UniProt Q9Y4P1).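 Further: Fluorescence-based dose-response confirmation assay measuring inhibition of ATG4B activity.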
T1 sequence (Q9Y4P1 whole entry): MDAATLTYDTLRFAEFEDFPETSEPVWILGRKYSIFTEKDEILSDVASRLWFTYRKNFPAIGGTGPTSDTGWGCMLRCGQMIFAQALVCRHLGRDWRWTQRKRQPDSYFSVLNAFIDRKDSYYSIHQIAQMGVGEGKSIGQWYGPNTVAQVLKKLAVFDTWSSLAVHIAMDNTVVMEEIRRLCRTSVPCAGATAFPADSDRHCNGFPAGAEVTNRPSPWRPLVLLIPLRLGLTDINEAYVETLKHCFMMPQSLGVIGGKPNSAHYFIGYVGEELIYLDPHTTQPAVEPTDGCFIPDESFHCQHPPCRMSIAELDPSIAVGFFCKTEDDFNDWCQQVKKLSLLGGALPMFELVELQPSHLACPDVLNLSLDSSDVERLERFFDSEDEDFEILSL
The format is functional.

The target of test [2] is Phospholipase A2 (Homo sapiens, UniProt P04054). The format is functional.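 Further: confirmatory dose-response counterscreen on phospholipase A2, testing hits that came from an ultra-high-throughput screen for ATG4B inhibitors.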
Chain of Phospholipase A2 (P04054 whole entry): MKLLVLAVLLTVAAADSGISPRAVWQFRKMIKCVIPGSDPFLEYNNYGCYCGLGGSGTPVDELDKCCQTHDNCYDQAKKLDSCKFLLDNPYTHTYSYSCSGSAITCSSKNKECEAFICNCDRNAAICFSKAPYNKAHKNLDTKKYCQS
Test [3] concerns the target T2, Caspase-3 (Homo sapiens, UniProt P42574).
T2 sequence (P42574 whole entry): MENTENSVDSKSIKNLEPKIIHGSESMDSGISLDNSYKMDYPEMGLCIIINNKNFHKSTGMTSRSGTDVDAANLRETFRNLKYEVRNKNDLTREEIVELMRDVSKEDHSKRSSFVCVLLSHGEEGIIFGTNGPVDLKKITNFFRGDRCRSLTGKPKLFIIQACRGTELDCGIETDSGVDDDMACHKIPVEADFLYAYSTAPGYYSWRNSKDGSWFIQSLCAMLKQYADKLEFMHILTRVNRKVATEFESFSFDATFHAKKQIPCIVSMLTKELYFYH
The format is functional.

For test [4], the target named is T3, Sentrin-specific protease 7 (Homo sapiens, UniProt Q9BQF6).
T3 sequence (Q9BQF6 whole entry): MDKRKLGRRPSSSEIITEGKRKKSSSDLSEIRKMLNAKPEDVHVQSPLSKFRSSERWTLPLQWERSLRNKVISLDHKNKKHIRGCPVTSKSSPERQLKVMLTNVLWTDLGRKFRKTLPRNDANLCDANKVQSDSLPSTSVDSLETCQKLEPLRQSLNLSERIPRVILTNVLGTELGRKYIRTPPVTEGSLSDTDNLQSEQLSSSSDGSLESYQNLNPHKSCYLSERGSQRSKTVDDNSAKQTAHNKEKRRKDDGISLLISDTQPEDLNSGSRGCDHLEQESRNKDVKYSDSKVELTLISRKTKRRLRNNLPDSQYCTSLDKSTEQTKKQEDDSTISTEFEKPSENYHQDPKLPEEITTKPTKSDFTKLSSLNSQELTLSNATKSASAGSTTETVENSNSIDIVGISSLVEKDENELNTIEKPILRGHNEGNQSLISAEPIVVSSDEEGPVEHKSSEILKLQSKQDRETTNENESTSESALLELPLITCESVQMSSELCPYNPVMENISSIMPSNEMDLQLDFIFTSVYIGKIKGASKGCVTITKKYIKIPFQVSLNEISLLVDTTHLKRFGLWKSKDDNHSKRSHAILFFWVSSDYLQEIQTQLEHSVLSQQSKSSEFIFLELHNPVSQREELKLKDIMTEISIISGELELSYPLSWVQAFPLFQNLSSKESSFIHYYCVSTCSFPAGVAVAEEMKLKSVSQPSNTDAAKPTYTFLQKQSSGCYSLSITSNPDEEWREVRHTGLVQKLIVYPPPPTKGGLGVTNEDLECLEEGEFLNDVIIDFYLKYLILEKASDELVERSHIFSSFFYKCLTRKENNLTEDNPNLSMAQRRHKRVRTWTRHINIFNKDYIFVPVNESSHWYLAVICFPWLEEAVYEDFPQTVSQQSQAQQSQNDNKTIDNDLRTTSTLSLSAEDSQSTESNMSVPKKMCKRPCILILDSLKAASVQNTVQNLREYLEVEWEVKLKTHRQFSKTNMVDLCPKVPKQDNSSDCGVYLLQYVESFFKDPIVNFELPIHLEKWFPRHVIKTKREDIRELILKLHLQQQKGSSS
The format is functional.

For test [5], the target named is T4, Sentrin-specific protease 6 (Homo sapiens, UniProt Q9GZR1).
T4 sequence (Q9GZR1 whole entry): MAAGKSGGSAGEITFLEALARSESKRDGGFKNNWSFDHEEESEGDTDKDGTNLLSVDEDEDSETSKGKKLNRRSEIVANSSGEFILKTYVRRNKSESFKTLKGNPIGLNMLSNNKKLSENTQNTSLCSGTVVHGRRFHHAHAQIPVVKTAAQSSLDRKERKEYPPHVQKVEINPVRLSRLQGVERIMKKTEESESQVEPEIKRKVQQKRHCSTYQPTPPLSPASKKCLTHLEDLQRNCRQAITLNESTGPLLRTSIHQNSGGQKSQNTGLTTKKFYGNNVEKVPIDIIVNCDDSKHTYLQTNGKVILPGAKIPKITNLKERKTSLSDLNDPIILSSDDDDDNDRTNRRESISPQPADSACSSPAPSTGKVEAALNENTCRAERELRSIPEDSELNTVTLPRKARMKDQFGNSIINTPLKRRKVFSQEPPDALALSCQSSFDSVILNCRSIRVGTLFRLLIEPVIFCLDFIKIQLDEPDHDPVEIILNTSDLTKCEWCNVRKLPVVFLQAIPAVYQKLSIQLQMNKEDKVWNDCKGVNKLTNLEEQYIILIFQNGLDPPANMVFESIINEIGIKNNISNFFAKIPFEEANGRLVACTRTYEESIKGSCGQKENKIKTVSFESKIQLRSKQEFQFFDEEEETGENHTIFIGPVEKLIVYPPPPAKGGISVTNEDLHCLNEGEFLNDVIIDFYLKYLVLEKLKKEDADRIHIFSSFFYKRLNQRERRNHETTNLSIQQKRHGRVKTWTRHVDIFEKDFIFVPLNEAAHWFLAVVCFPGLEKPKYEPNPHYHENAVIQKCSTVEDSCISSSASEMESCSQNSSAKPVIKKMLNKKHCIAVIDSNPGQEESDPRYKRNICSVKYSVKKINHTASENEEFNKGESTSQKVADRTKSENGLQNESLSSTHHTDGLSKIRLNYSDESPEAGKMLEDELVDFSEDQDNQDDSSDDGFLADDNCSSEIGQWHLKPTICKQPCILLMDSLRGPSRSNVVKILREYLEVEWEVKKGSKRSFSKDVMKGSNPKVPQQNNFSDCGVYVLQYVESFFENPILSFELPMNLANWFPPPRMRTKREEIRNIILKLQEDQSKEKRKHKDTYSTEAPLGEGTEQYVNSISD
The format is functional.

Test [6] concerns the target T5, Sentrin-specific protease 8 (Homo sapiens, UniProt Q96LD8).
T5 sequence (Q96LD8 whole entry): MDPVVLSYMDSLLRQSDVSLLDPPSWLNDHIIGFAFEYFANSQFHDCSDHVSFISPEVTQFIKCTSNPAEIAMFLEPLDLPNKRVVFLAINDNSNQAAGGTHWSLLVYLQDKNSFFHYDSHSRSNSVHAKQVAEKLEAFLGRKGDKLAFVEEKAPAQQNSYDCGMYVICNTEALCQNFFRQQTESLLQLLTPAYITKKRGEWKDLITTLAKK
The class given is functional.

Test [7] addresses T5, Sentrin-specific protease 8. Nature of the test: inhibition of human SENP8 cleavage activity – biochemical, luminescence, SAR follow-up (AID 504501). The format is functional.
The target in test [8] is T2, Caspase-3. The test is described as follows: SAR Analysis of small molecule inhibitors of Sentrin-specific proteases (SENPs) using a Caspase-3 Selectivity assay. [Related pubchem assays (depositor defined):AID2540, AID2599, AID434973, AID489001]. The format is functional.
The target in test [9] is T4, Sentrin-specific protease 6. The test is described as follows: SAR Analysis of small molecule inhibitors of Sentrin-specific protease 6 (SENP6) using a Luminescent assay. [Related pubchem assays (depositor defined):AID2582, AID2599]. The class given is functional.
In test [10] the target is T3, Sentrin-specific protease 7. The test is described as follows: inhibition of human SENP7 cleavage activity – biochemical, luminescence, SAR follow-up (AID 504497). The class given is functional.
In test [11] the test system is CHO. Nature of the test: CHO cell viability loss, potency – luminescence, cytotoxicity control for TLR9-MyD88 binding inhibitor project, dose response (AID 588339).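 Further: CHO cells stably coexpressing TLR9 and MyD88 fusions from primary screen; compound exposure lasted 48 hours before viability readout.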 Particulars: Cricetulus griseus. The class given is functional, cell-based, hamster.
The target in test [12] is Beta Lactamase (Pseudomonas aeruginosa, UniProt Q932Y6). Nature of the test: BLA reporter interference, concentration series – BLA reporter cells, FRET fluorescence, artefact control for TLR9-MyD88 binding inhibitor project, dose response (AID 588341).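 Further: cell based assay in CHO-K1 cells stably expressing beta-lactamase.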 The format is cell-based.
Chain of Beta Lactamase (Q932Y6 whole entry): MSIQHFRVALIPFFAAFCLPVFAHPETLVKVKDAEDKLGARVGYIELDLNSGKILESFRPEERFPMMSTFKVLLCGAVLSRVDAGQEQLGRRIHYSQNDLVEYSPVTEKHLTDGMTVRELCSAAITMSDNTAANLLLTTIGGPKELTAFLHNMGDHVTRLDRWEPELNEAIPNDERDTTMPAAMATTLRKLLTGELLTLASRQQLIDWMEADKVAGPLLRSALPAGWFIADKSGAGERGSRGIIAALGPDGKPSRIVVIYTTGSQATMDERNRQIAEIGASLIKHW
For test [13], the target named is T2, Caspase-3. The test is described as follows: inhibition of recombinant caspase-3 activity – biochemical, luminescence, set 2, selectivity assay for SENP protease inhibitor project, SAR follow-up (AID 588599). The class given is functional.
The target of test [14] is T5, Sentrin-specific protease 8. The test is described as follows: inhibition of sentrin protease 8 – biochemical, luminescence, set 2, SAR follow-up (AID 588601). The format is functional.

As for `CC(C)c1ccc(NC2CCCN(C(=O)c3[nH]nc4c3CCC4)C2)cc1` (stereo unspecified), the IC50 was 11.8 µM (active) in test [1] and 5.99 µM (active) in [2].

Take `O=C(Nc1ccc(Br)cc1)c1ccc2c(c1)OCO2`: the concentration for half-maximal inhibition (IC50) in [3] is 22.1 µM (active); in [4], 3.75 µM (active); in test [5] it was > 100 µM (inactive); in test [6] it was > 100 µM (inactive); in test [7] it was > 99 µM (inactive); in test [8], 8.29 µM (active). The IC50 in test [9] is > 99 µM (inactive); in test [10] it was 4.45 µM (active).

Regarding `Nc1ccccc1-c1noc(/C=C/c2ccccc2Cl)n1`, the IC50 in test [7] was > 99 µM (inactive); in test [8], > 99 µM (inactive); in test [9], > 99 µM (inactive); in test [10] it was 71.3 µM (active).

For `COc1ccc(/C=N/Nc2ccc([N+](=O)[O-])cc2)cc1O`, the IC50 in test [11] is 45.1 µM (inactive); in test [12] it was 10.7 µM (inactive).

On to `Cc1ccc(C(=O)Nc2nc3ccc(Cl)cc3s2)o1`, for which the IC50 in test [7] was 3 µM (active); in [13], 2.53 µM (active); in [14], 1.65 µM (active); in test [8], 11 µM (active); in [9], 25 µM (active).

As a reminder, the IC50 is the point on the concentration scale where inhibition reaches its midpoint.
